In US7786134B2, “Lipophilic anticancer drug compounds, compositions and related methods” (Sonus Pharmaceuticals, Inc., priority 2005, dated 2010):
Read-outs that look alike come from different tables or passages of the source.

Key:
[1] = system: H460 (non-small cell lung); experiment: In vitro cytotoxicity (GI50), Sulforhodamine B staining, H460; format: cell-based; conditions: H460 cells, 48 hours contact, read-out: Concentration that produce 50% cell growth inhibition (GI50) H460 (NSCLC)
Procedure: (§1) The study was performed using a solution of the lipophilic anticancer drug compounds in DMSO (1 mM) diluted in the corresponding cell media. The cells were in contact with varying concentrations of the test article for a period of 48 hours. At the end of 48 hours, staining with Sulforhodamine B was performed to determine the number of viable cells and calculate the degree of cellular growth inhibition as compared to a control group.

HCT-15 (colorectal) [2] = experiment: In vitro cytotoxicity (GI50), Sulforhodamine B staining, HCT-15; format: cell-based; conditions: HCT-15 cells, 48 hours contact, read-out: Concentration that produce 50% cell growth inhibition (GI50) HCT-15 (COLON)
Procedure: as §1

HCT-116 (COLON) [3] = experiment: In vitro cytotoxicity (GI50), Sulforhodamine B staining, HCT-116; format: cell-based; conditions: HCT-116 cells, 48 hours contact, read-out: Concentration that produce 50% cell growth inhibition (GI50) HCT-116 (COLON)
Procedure: as §1

SKOV-3 (ovarian) [4] = experiment: In vitro cytotoxicity (GI50), Sulforhodamine B staining, SKOV-3; format: cell-based; conditions: SKOV-3 cells, 48 hours contact, read-out: Concentration that produce 50% cell growth inhibition (GI50) SKOV-3 (OVARIAN)
Procedure: as §1

[5] = system: H460 (non-small cell lung); conditions: H460 cells, National Cancer Institute (NCI) GI50 values; read-out: Concentration that produce 50% cell growth inhibition (GI50) H460 (NSCLC); cited from earlier work
HCT-15 (colorectal) [6] = conditions: HCT-15 cells, National Cancer Institute (NCI) GI50 values; read-out: Concentration that produce 50% cell growth inhibition (GI50) HCT-15 (COLON); cited from earlier work
HCT-116 (COLON) [7] = conditions: HCT-116 cells, National Cancer Institute (NCI) GI50 values; read-out: Concentration that produce 50% cell growth inhibition (GI50) HCT-116 (COLON); cited from earlier work
SKOV-3 (ovarian) [8] = conditions: SKOV-3 cells, National Cancer Institute (NCI) GI50 values; read-out: Concentration that produce 50% cell growth inhibition (GI50) SKOV-3 (OVARIAN); cited from earlier work

Molecule	GI50 [1] [nM]	GI50 (HCT-15 (colorectal) [2]) [nM]	GI50 (HCT-116 (COLON) [3]) [nM]	GI50 (SKOV-3 (ovarian) [4]) [nM]	GI50 [5] [nM]	GI50 (HCT-15 (colorectal) [6]) [nM]	GI50 (HCT-116 (COLON) [7]) [nM]	GI50 (SKOV-3 (ovarian) [8]) [nM]
CCc1c2c(nc3ccc(OC(=O)CCC(=O)OCc4ccc(C)cc4)cc13)-c1cc3c(c(=O)n1C2)COC(=O)C3(O)CC (centres unmarked) [10-(4-methylbenzyl succinate)-7-ethylcamptothecin]	5.37	75.4	2.29	6.16	–	–	–	–
CCc1c2c(nc3ccc(OC(=O)CCC(=O)OCc4ccccc4)cc13)-c1cc3c(c(=O)n1C2)COC(=O)C3(O)CC (centres unmarked) [10-(benzyl succinate)-7-ethylcamptothecin]	0.372	50.1	10.7	1.29	–	–	–	–
CCC1(OC(=O)CCC(=O)OCc2ccccc2)C(=O)OCc2c1cc1n(c2=O)Cc2cc3ccccc3nc2-1 (centres unmarked) [20-(benzyl succinate)camptothecin]	380	1300	630	562	–	–	–	–
10-(n-butyl carbonoyloxy)-7-ethylcamptothecin	2.95	120	0.58	0.275	–	–	–	–
10-(N-n-butyl carbamate)-7-ethylcamptothecin	1.2	44.7	1.1	0.398	–	–	–	–
CCc1c2c(nc3ccc(OC(=O)CCC(=O)OCc4c(C)cc(C)cc4C)cc13)-c1cc3c(c(=O)n1C2)COC(=O)C3(O)CC (centres unmarked) [10-(2,4,6-trimethylbenzyl succinate)-7-ethylcamptothecin]	5.12	31.6	3.54	3.67	–	–	–	–
CC[C@@]1(O)C(=O)OCc2c1cc1n(c2=O)Cc2cc3ccccc3nc2-1 [Camptothecin]	–	–	–	–	16	160	40	25
CC[C@@]1(O)C(=O)OCc2c1cc1n(c2=O)Cc2cc3c(CN(C)C)c(O)ccc3nc2-1 [Topotecan, topotecan]	–	–	–	–	19.9	501	39.8	–
CCCCOc1ccc(C(=O)Oc2ccc3nc4c(c(CC)c3c2)Cn2c-4cc3c(c2=O)COC(=O)C3(O)CC)cc1 (centres unmarked) [10-(4-butoxybenzoyloxy)-7-ethylcamptothecin]	28.2	141	5.62	5.5	–	–	–	–
CCc1c2c(nc3ccc(OC(=O)CC4(CC(=O)OCc5ccccc5)CCCC4)cc13)-c1cc3c(c(=O)n1C2)COC(=O)[C@]3(O)CC [10-(benzyl 3,3-tetramethyleneglutarate)-7-ethylcamptothecin]	8.91	85.1	3.49	2.95	–	–	–	–
CCc1c2c(nc3ccc(OC(=O)CCC(=O)OCc4c(C)c(C)c(C)c(C)c4C)cc13)-c1cc3c(c(=O)n1C2)COC(=O)C3(O)CC (centres unmarked) [10-(2,3,4,5,6-pentamethylbenzyl succinate)-7-ethylcamptothecin]	3.82	32.4	3.09	2.13	–	–	–	–
CCCCCCCCOC(=O)CCC(=O)Oc1ccc2nc3c(c(CC)c2c1)Cn1c-3cc2c(c1=O)COC(=O)C2(O)CC (centres unmarked) [10-(1-octyl succinate)-7-ethylcamptothecin]	2460	661	9.75	3.46	–	–	–	–
CC[C@@]1(O)C(=O)OCc2c1cc1n(c2=O)Cc2cc3cc(O)ccc3nc2-1 [10-hydroxycamptothecin]	–	–	–	–	11	356	27	–
CCCCCCCCOC(=O)CCC(=O)OC1(CC)C(=O)OCc2c1cc1n(c2=O)Cc2cc3ccccc3nc2-1 (centres unmarked) [20-(1-octyl succinate)camptothecin]	165	354	766	2420	–	–	–	–
CCc1c2c(nc3ccc(O)cc13)-c1cc3c(c(=O)n1C2)COC(=O)[C@]3(O)CC [7-ethyl-10hydroxycamptothecin, 7-ethyl-10-hydroxycamptothecin]	–	–	–	–	1.4	7.9	21	1
CCc1c2c(nc3ccc(OCc4ccccc4)cc13)-c1cc3c(c(=O)n1C2)COC(=O)[C@]3(O)CC [10-benzyloxy-7-ethylcamptothecin]	0.32	5.66	4.52	15	–	–	–	–
CCc1c2c(nc3ccc(OC(=O)NC(C)(C)C)cc13)-c1cc3c(c(=O)n1C2)COC(=O)C3(O)CC (centres unmarked) [10-(N-t-butyl carbamate)-7-ethylcamptothecin]	5.75	158	15.1	1.29	–	–	–	–
CCc1c2c(nc3ccc(OC(=O)N4CCC(N5CCCCC5)CC4)cc13)-c1cc3c(c(=O)n1C2)COC(=O)[C@]3(O)CC [Irrinotecan, irinotecan]	–	–	–	–	5100	–	7900	–
